In one series the test system is α-glucosidase. Nature of the series: Hydrolysis by α-glucosidase. Conditions: forms L-ascorbic acid and D-glucose, molar ratio 1:1. The class given is biochemical. As to the method:
(§1) (a) Hydrolyzable by α-glucosidase or by treatment with 1N hydrochloric acid at 100° C. for 5 minutes to form L-ascorbic acid and D-glucose at a molar ratio of 1:1.

In another series the test system is human fibroblast cell. The series is described as follows: Collagenic activity in human fibroblast cell. The class given is cell-based. Conditions: 0.25 mM, 24 hours. Here is the method:
(b) Collagenic activity 2-O-α-D-Glucosyl-L-ascorbic acid, 6-O-α-D-glucosyl-L-ascorbic acid and L-ascorbic acid were tested for their collagenic activity. A human fibroblast cell, cell density of 7×10^4 cells/plate, was cultured in Eagle's minimal essential medium supplemented with 10% FCS for 1 week, added with 4 μCi/ml ^3 H-proline, 20 μg/ml of β-aminopropionitrile and 0.25 mM of either sample, and cultured for an additional 24 hours. The resultant was then added with 10 w/v % trichloroacetic acid to recover the collagenous element in the culture, followed by lyophilization. The resultant specimen was dissolved, and the solution was adjusted to an appropriate pH, treated with a collagenase (Type III) at 37° C. for 90 minutes, and centrifuged. Collagenic activity was estimated by determining the radio activity in the supernatant.

A short description of the next series: Solubility in solvents. The class given is physicochemical.
For the next series, the system named is dd mice. Nature of the series: Acute toxicity, oral. The class given is in vivo, mouse. The text has this:
A high-purity α-D-glucosyl-L-ascorbic acid specimen, prepared by the method in Experiment 2(2), was orally administered to 7 week-old dd mice for acute toxicity test. As the result, no mouse died when administered with up to […] of the specimen, and higher dose was difficult.

Series [1] is described as follows: Hydrolysis by 1N hydrochloric acid at 100° C. The class given is physicochemical. Conditions: 5 minutes. As to the method: as §1
A further series can be described thus: physchem. Type of series: physicochemical. Conditions: for Remaining ratio: 0 min, 70 uM; for remaining at 0.25 h, 70 µM / remaining at 0.5 h, 70 µM / remaining at 1 h, 70 µM / remaining at 21 h, 70 µM: water. Here is the method: (c) 2-O-α-D-Glucosyl-L-ascorbic acid was compared respectively to the 6-O-α-D-glucosyl-L-ascorbic acid disclosed in Japanese Patent Publication No. 38,158/73, and L-ascorbic acid for their stability in aqueous solution. More particularly, each sample was adjusted to a concentration of 70 micromoles and to pH 7.0 or 2.0, placed in a cuvette, and measured for its absorbance at either 260 nm and pH 7.0 or at 245 nm and pH 2.0 while keeping the solution at 20° C. The remaining ratio (%) was calculated with the absorbance.

A further series relates to cytochrome C. Nature of the series: Reducing activity on cytochrome C. The class given is biochemical. As to conditions: for Reducing activity on cytochrome C: intact sample, 10 microliters of 10 mM, pH 7.8.
Series [2] can be described thus: Coloring reaction: direct reducing activity on 2,6-dichlorophenolindophenol.
In another series the test system is β-glucosidase. Nature of the series: Hydrolysis by β-glucosidase. Type of series: biochemical. The text has this:
(b) Unhydrolyzable by β-glucosidase.

A value given as a limit tells only on which side of the number the result lay.

As to `O=C1O[C@H]([C@@H](O)CO)C(O)=C1O[C@H]1O[C@H](CO)[C@@H](O)[C@H](O)[C@H]1O` [2-O-α-D-glucosyl-L-ascorbic acid], in the series on α-glucosidase, the “Hydrolysis by α-glucosidase” value is “Hydrolyzable”. Also, in the series with human fibroblast cell, the Collagenic activity entry is reported as “the same collagenic activity as that of L-ascorbic acid”. Moreover, the Solubility result in the series “Solubility in solvents” (0.1N acetic acid) is on record as “Readily soluble”; in “Solubility in solvents” (0.1N sodium hydroxide), “Readily soluble”; in the series “Solubility in solvents” (benzene), “insoluble”; in “Solubility in solvents” (chloroform), “insoluble”; in the series “Solubility in solvents” (ethanol), “soluble”; in “Solubility in solvents” (ether) it was “insoluble”. Further, the Solubility entry in the series “Solubility in solvents” (methanol) is “soluble”; in the series “Solubility in solvents” (water) it was “Readily soluble”. Also, the “Highest dose administered without death” value in the series on dd mice (7 week-old dd mice, higher dose was difficult) is no less than 5 g. Moreover, the Mortality result with dd mice (7 week-old dd mice, up to 5 g) was “no mouse died”. Moreover, the “Toxicity” value with dd mice (dd mice) is given as “extremely low in toxicity”. In addition, the Hydrolysis by acid result in [1] is listed as “Hydrolyzable”. In addition, the “Stability in aqueous solution” value in “physchem” is listed as “extremely stable in aqueous solution”. Also, the Remaining ratio in the series “physchem” (pH 2) and in “physchem” (pH 7) was 100% in each case. Besides, the share remaining at 0.25 h, 70 µM in the series “physchem” (pH 2) and in the series “physchem” (pH 7) was 100% throughout. The share remaining at 0.5 h, 70 µM in the series “physchem” (pH 2) and in the series “physchem” (pH 7) was 100% each time. Also, the fraction remaining at 1 h, 70 µM in the series “physchem” (pH 2) and in “physchem” (pH 7) was 100% throughout. For the same molecule, the share remaining at 21 h, 70 µM in “physchem” (pH 2) and in “physchem” (pH 7) was 100% each time. The “Reducing activity on cytochrome C after hydrolysis” value with cytochrome C (hydrolyzed by α-glucosidase specimen) was “exhibited a reducing activity”. Further, the “Reducing activity on cytochrome C” value in the series on cytochrome C was “no reducing activity”. Also, the “Direct reducing activity (2,6-dichlorophenolindophenol)” value in series [2] is “no direct reducing activity, and not reducing and decoloring 2,6-dichlorophenolindophenol”. Also, the “Hydrolysis by β-glucosidase” value in the series on β-glucosidase is on record as “Unhydrolyzable”.
`O=C1O[C@H]([C@@H](O)CO[C@H]2O[C@H](CO)[C@@H](O)[C@H](O)[C@H]2O)C(O)=C1O` [6-O-α-D-glucosyl-L-ascorbic acid]: in the series with human fibroblast cell, the Collagenic activity entry is “slightly inferior in collagenic activity to that of 2-O-α-D-glucosyl-L-ascorbic acid”. Also, in “physchem” (pH 2), the Remaining ratio was 100%; the share remaining at 0.25 h, 70 µM was found to be 99%; the fraction remaining at 0.5 h, 70 µM came out at 98%; the share remaining at 1 h, 70 µM is 91%. In “physchem” (pH 2), this molecule gave an amount remaining at 21 h, 70 µM of 55%. In the series “physchem” (pH 7), the Remaining ratio is given as 100%; the fraction remaining at 0.25 h, 70 µM was found to be 58%; the share remaining at 0.5 h, 70 µM stood at 36%; the amount remaining at 1 h, 70 µM was 17%. Also, the share remaining at 21 h, 70 µM in “physchem” (pH 7) was 8%. Besides, the “Reducing activity on cytochrome C” value with cytochrome C was “unlike 6-O-α-D-glucosyl-L-ascorbic acid and L-ascorbic acid, 2-O-α-D-glucosyl-L-ascorbic acid exhibited no reducing activity”.
Consider `O=C1O[C@H]([C@@H](O)CO)C(O)=C1O` [L-ascorbic acid], for which, in the series “physchem” (pH 2), the Remaining ratio stood at 100%; the amount remaining at 0.25 h, 70 µM was 99%; the amount remaining at 0.5 h, 70 µM came to 97%; the share remaining at 1 h, 70 µM came to 87%. In “physchem” (pH 2), the share remaining at 21 h, 70 µM worked out at 10%. Moreover, in “physchem” (pH 7), the Remaining ratio turned out to be 100%; the amount remaining at 0.25 h, 70 µM is 47%; the share remaining at 0.5 h, 70 µM is 20%; the share remaining at 1 h, 70 µM is 8%. Also, in “physchem” (pH 7), the amount remaining at 21 h, 70 µM was 2%. Further, in the series on cytochrome C, the “Reducing activity on cytochrome C” value is “unlike 6-O-α-D-glucosyl-L-ascorbic acid and L-ascorbic acid, 2-O-α-D-glucosyl-L-ascorbic acid exhibited no reducing activity”.

The share remaining is what is left of the initial amount, in per cent. Higher therefore signals less turnover.

Values taken from US5767149A, “α-glycosyl-L-ascorbic acid, and it's preparation and uses” (priority 1989, dated 1998).
